Molecular target: T1, hDGAT1 (Homo sapiens, UniProt O75907)
T1 sequence (O75907 1-488): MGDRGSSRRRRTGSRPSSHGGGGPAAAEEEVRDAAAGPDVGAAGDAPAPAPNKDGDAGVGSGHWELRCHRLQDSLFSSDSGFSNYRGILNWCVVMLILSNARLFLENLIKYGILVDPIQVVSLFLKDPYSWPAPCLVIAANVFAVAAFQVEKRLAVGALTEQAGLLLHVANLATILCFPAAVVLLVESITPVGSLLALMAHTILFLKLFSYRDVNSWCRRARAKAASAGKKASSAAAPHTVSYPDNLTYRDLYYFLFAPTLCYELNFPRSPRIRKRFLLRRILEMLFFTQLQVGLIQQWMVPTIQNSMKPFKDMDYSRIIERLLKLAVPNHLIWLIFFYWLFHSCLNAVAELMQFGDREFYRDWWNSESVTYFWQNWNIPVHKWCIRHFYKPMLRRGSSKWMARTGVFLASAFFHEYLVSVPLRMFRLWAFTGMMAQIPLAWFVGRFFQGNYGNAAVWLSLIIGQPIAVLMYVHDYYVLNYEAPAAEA
Experiment: In-vitro DGAT1 assay (14C oleoyl CoA, hDGAT1 microsomes from Sf9 cells)
Settings: at 1 μM

Row | SMILES | % Inhibition of hDGAT1
1 | O=C(Nc1ccc(-c2ccc3c(c2)C(=O)N(C2(C(=O)O)CC2)C3)cc1)c1ccc(-c2ccccc2)cc1 [Example 586, 1-(6-(4-([1,1′-Biphenyl]-4-ylcarboxamido)phenyl)-1-oxoisoindolin-2-yl)cyclopropanecarboxylic acid] | ++ (>50% Inhibition)
2 | COc1cc(NC(=O)c2ccc(-c3ccccc3)cc2)ccc1-c1ccc2c(c1)C(=O)N([C@H](C(=O)O)C(C)C)C2 [Example 458, (S)-2-(6-(4-Biphenyl-4-ylcarboxamido-2-methoxyphenyl)-1-oxoisoindolin-2-yl)-3-methylbutanoic acid] | ++ (>50% Inhibition)
3 | O=C(Nc1ccc(-c2ccc3c(c2)C(=O)N(C2CCC(C(=O)O)CC2)C3)cc1)c1ccc(-c2ccccc2)cc1 (stereo not shown) [Example 557, (1r,4r)-4-(6-(4-([1,1′-Biphenyl]-4-ylcarboxamido)phenyl)-1-oxoisoindolin-2-yl)cyclohexanecarboxylic acid] | ++ (>50% Inhibition)
4 | CC(C)[C@@H](C(=O)O)N1Cc2ccc(-c3ccc(NC(=O)c4cnc5ccccc5c4)cc3)cc2C1=O [Example 651] | + (10-50% Inhibition)
5 | O=C(Nc1ccc(-c2ccc3c(c2)C(=O)N(C2CCCC(C(=O)O)C2)C3)cc1)c1ccc(-c2ccccc2)cc1 (stereo not shown) [Example 545, 3-(6-(4-([1,1′-Biphenyl]-4-ylcarboxamido)phenyl)-1-oxoisoindolin-2-yl)cyclo hexane carboxylic acid] | ++ (>50% Inhibition)
6 | O=C(Nc1ccc(-c2ccc3c(c2)C(=O)N(C2(C(=O)O)CCCC2)C3)cc1)c1ccc(-c2ccccc2)cc1 [Example 529, 1-(6-(4-([1,1′-Biphenyl]-4-ylcarboxamido)phenyl)-1-oxoisoindolin-2-yl)cyclopentane carboxylic acid] | ++ (>50% Inhibition)

Same assay, conditions: read-out: % Inhibition of hDGAT1

Row | SMILES | inhibition at 1 µM
7 | Cc1ccc(C(=O)Nc2ccc(-c3ccc4c(c3)C(=O)N([C@H](C(=O)O)C(C)C)C4)cc2)cc1 [Example 112, (S)-3-Methyl-2-(6-(4-(4-methylbenzamido)phenyl)-1-oxoisoindolin-2-yl)butanoic acid] | > 50%
8 | COc1ccc(C(=O)Nc2ccc(-c3ccc4c(c3)CN([C@H](C(=O)O)C(C)C)C4=O)cc2)cc1 [Example 311, (S)-2-(5-(4-(4-Methoxybenzamido)phenyl)-1-oxoisoindolin-2-yl)-3-methyl butanoic acid] | 10 to 50%
9 | Cc1ccc(NC(=S)Nc2ccc(-c3ccc4c(c3)C(=O)N([C@H](C(=O)O)C(C)C)C4)cc2)cc1 [Example 54, (S)-3-Methyl-2-(1-oxo-6-(4-(3-p-tolylthioureido)phenyl)isoindolin-2-yl)butanoic acid] | 10 to 50%
10 | CC(C)[C@@H](C(=O)O)N1Cc2ccc(-c3ccc(NC(=S)Nc4cccc(C#N)c4)cc3)cc2C1=O [Example 70, (S)-2-(6-(4-(3-(3-Cyanophenyl)thioureido)phenyl)-1-oxoisoindolin-2-yl)-3-methylbutanoic acid] | 10 to 50%
11 | CC(C)[C@@H](C(=O)O)N1Cc2ccc(-c3ccc(NC(=O)Nc4cc(Cl)ccc4Oc4ccccc4)cc3)cc2C1=O [Example 46, (S)-2-(6-(4-(3-(5-Chloro-2-phenoxyphenyl)ureido)phenyl)-1-oxoisoindolin-2-yl)-3-methylbutanoic acid] | > 50%
12 | COc1ccc(S(=O)(=O)Nc2ccc(-c3ccc4c(c3)C(=O)N([C@H](C(=O)O)C(C)C)C4)cc2)cc1 [Example 90, (S)-2-(6-(4-(4-Methoxyphenylsulfonamido)phenyl)-1-oxoisoindolin-2-yl)-3-methylbutanoic acid] | 10 to 50%
13 | CC(C)[C@@H](C(=O)O)N1Cc2ccc(-c3ccc(NC(=O)c4ncc(-c5ccccc5)o4)cn3)cc2C1=O [Example 635, (S)-3-Methyl-2-(1-oxo-6-(5-(5-phenyloxazole-2-carboxamido)pyridin-2-yl)isoindolin-2-yl)butanoic acid] | > 50%
14 | CC(C)[C@@H](C(=O)O)N1Cc2ccc(-c3ccc(NC(=O)c4cccc(F)c4)cc3)cc2C1=O [Example 106, (S)-2-(6-(4-(3-Fluorobenzamido)phenyl)-1-oxoisoindolin-2-yl)-3-methylbutanoic acid] | > 50%
15 | COc1cc(NC(=O)c2ccc(OC(F)(F)F)cc2)ccc1-c1ccc2c(c1)C(=O)N([C@H](C(=O)O)C(C)C)C2 [Example 464, (S)-2-(6-(2-Methoxy-4-(4-(trifluoromethoxy)benzamido)phenyl)-1-oxoisoindolin-2-yl)-3-methylbutanoic acid] | 10 to 50%
16 | CC(C)[C@@H](C(=O)O)N1Cc2ccc(-c3ccc(NC(=O)c4ccc(C(C)(C)C)cc4)nc3)cc2C1=O [Example 492, (S)-2-(6-(6-(4-tert-Butylbenzamido)pyridin-3-yl)-1-oxoisoindolin-2-yl)-3-methylbutanoic acid] | > 50%
17 | CC(C)[C@@H](C(=O)O)N1Cc2ccc(-c3ccc(NC(=O)c4ccc(Cl)cc4)cc3F)cc2C1=O [Example 606, (S)-2-(6-(4-(4-Chlorobenzamido)-2-fluorophenyl)-1-oxoisoindolin-2-yl)-3-methyl butanoic acid] | 10 to 50%
18 | CCCCCc1ccc(C(=O)Nc2ccc(-c3ccc4c(c3)C(=O)N([C@H](C(=O)O)C(C)C)C4)c(C(F)(F)F)c2)cc1 [Example 430, (S)-3-Methyl-2-(1-oxo-6-(4-(4-pentylbenzamido)-2-(trifluoromethyl)phenyl)isoindolin-2-yl)butanoic acid] | 10 to 50%
19 | Cc1ccc(F)c(C(=O)Nc2ccc(-c3ccc4c(c3)C(=O)N([C@H](C(=O)O)C(C)C)C4)cc2)c1F [Example 166, (S)-2-(6-(4-(2,6-Difluoro-3-methylbenzamido)phenyl)-1-oxoisoindolin-2-yl)-3-methylbutanoic acid] | > 50%
20 | O=C(Nc1ccc(-c2ccc3c(c2)C(=O)N([C@H](C(=O)O)c2ccccc2)C3)cc1)Nc1cccc(C(F)(F)F)c1 [Example 346, (S)-2-(1-Oxo-6-(4-(3-(3-(trifluoromethyl)phenyl)ureido)phenyl)isoindolin-2-yl)-2-phenylacetic acid] | 10 to 50%
21 | CCCCCCCCCCc1ccc(C(=O)Nc2ccc(-c3ccc4c(c3)C(=O)N([C@H](C(=O)O)C(C)C)C4)cc2)cc1 [Example 188, (S)-2-(6-(4-(4-Decylbenzamido)phenyl)-1-oxoisoindolin-2-yl)-3-methyl butanoic acid] | > 50%
22 | CC(C)[C@@H](C(=O)O)N1Cc2ccc(-c3ccc(NC(=O)Nc4ccc(F)c(F)c4)c(F)c3)cc2C1=O [Example 440, (S)-2-(6-(4-(3-(3,4-Difluorophenyl)ureido)-3-fluorophenyl)-1-oxoisoindolin-2-yl)-3-methylbutanoic acid] | > 50%
23 | CC(C)[C@@H](C(=O)O)N1Cc2ccc(-c3ccc(NC(=O)Nc4ccccc4Cl)cc3C(F)(F)F)cc2C1=O [Example 416, (S)-2-(6-(4-(3-(2-Chlorophenyl)ureido)-2-(trifluoromethyl)phenyl)-1-oxoisoindolin-2-yl)-3-methylbutanoic acid] | 10 to 50%
24 | CC(C)[C@@H](C(=O)O)N1Cc2ccc(-c3ccc(NC(=O)c4ccc(C(C)(C)C#N)cc4)cc3)cc2C1=O [Example 631, (S)-2-(6-(4-(4-(2-Cyanopropan-2-yl)benzamido)phenyl)-1-oxoisoindolin-2-yl)-3-methylbutanoic acid] | > 50%
25 | CCCCc1ccc(C(=O)Nc2ccc(-c3ccc4c(c3)C(=O)N([C@H](C(=O)O)C(C)C)C4)cc2)cc1 [Example 164, (S)-2-(6-(4-(4-Butylbenzamido)phenyl)-1-oxoisoindolin-2-yl)-3-methylbutanoic acid] | > 50%
26 | CC(C)[C@@H](C(=O)O)N1Cc2ccc(-c3ccc(NC(=O)c4ccc(C(C)(C)C)cc4)cc3Cl)cc2C1=O [Example 480, (S)-2-(6-(4-(4-tert-Butylbenzamido)-2-chlorophenyl)-1-oxoisoindolin-2-yl)-3-methylbutanoic acid] | > 50%
27 | O=C(Nc1ccc(-c2ccc3c(c2)C(=O)N(C2(C(=O)O)CC2)C3)cc1)c1ccc(C(F)(F)F)cc1 [Example 590, 1-(1-Oxo-6-(4-(4-(trifluoromethyl)benzamido)phenyl)isoindolin-2-yl)cyclo propane carboxylic acid] | > 50%
28 | CC(C)[C@@H](C(=O)O)N1Cc2ccc(-c3ccc(NC(=O)Nc4ccccc4Cl)cn3)cc2C1=O [Example 394, (S)-2-(6-(5-(3-(2-Chlorophenyl)ureido)pyridin-2-yl)-1-oxoisoindolin-2-yl)-3-methylbutanoic acid] | > 50%
29 | COc1ccc(S(=O)(=O)Nc2ccc(-c3ccc4c(c3)CN([C@H](C(=O)O)C(C)C)C4=O)cc2)cc1OC [Example 293, (S)-2-(5-(4-(3,4-Dimethoxyphenylsulfonamido)phenyl)-1-oxoisoindolin-2-yl)-3-methylbutanoic acid] | 10 to 50%
30 | Cc1oc(-c2ccccc2)nc1C(=O)Nc1ccc(-c2ccc3c(c2)C(=O)N([C@H](C(=O)O)C(C)C)C3)nc1 [Example 655, (S)-3-Methyl-2-(6-(5-(5-methyl-2-phenyloxazole-4-carboxamido)pyridin-2-yl)-1-oxoisoindolin-2-yl)butanoic acid] | > 50%
31 | CC(C)[C@@H](C(=O)O)N1Cc2ccc(-c3ccc(NC(=O)c4ccc(OC(F)(F)F)cc4)cc3F)cc2C1=O [Example 608, (S)-2-(6-(2-Fluoro-4-(4-(trifluoromethoxy)benzamido)phenyl)-1-oxoisoindolin-2-yl)-3-methylbutanoic acid] | > 50%
